The values that follow come from patent publication US20190133933A1, “FORMULATIONS AND METHODS FOR REDUCTION OF INTRAOCULAR PRESSURE” (CLEARSIDE BIOMEDICAL, INC., priority 2016, published 2019).

The subject of the assay is normotensive dogs. Put plainly: Poststudy efficacy challenge: single topical ocular dose, IOP followed for 24 hours. The format is in vivo, female beagle dogs. The procedure:
IOP was measured by using a TonoVet according to a study-specific procedure. IOP measurements consisted of three independent readings per eye per time point from each eye. Following approximately 4 weeks of washout, animals in both groups were administered latanoprost in the right eye and phosphate-buffered saline (PBS) in the left eye, and IOP measurements were followed for 24 hours. As applicable, the dosing solution was drawn up into a 1-mL luer-lock syringe using a standard 21-gauge, 1-inch needle. Bubbles were expressed and the standard needle was replaced by a 30-gauge microneedle 1100 μm in length. […] Following the injection, the needle was kept in the eye for approximately 10 seconds before being withdrawn. Upon withdrawal of the microneedle, a cotton-tipped applicator (CTA, dose wipe) was placed over the injection site for approximately 10 seconds. The right eye was dosed first and all post-dose times were based on the time of dosing of the second (left) eye.
Approximately 8 weeks after dose administration, all animals underwent a poststudy efficacy challenge. A positive displacement pipette was used to administer a single 35-μL dose of latanoprost to the right eye and phosphate-buffered saline (PBS) to the left eye. IOP was measured prior to dose administration (approximately −1 and 0 hours), and at 2, 4, 6, 8, and 24 hours following treatment. […]

Consider `CC(C)OC(=O)CCC/C=C\C[C@@H]1[C@@H](CC[C@@H](O)CCc2ccccc2)[C@H](O)C[C@@H]1O` [Latanoprost], for which the “effect on IOP” value (right eyes vs PBS left eyes kept at about baseline (FIGS. 13-16)) is reported as “decreased the IOP”. Besides, the “mean maximum effective decrease (Emax) in IOP values” (single 35-μL topical ocular dose, right eye, Groups 1 and 2) is given as 3-5 mm Hg.
